Measured values: ChEMBL document CHEMBL5154842, “Unique Carbazole-Oxadiazole Derivatives as New Potential Antibiotics for Combating Gram-Positive and -Negative Bacteria” (J Med Chem, 2022)
≈ marks a conversion by molar mass, not a printed value.

Tests used:
Format in all cases: functional
Acinetobacter baumannii = experiment: Antibacterial activity against Acinetobacter baumannii assessed as inhibition of bacterial growth incubated for 24 hrs by CLSI protocol based two fold serial dilution method
Staphylococcus aureus [1] = experiment: Antibacterial activity against methicillin-resistant Staphylococcus aureus N315 assessed as inhibition of bacterial growth incubated for 24 hrs by CLSI protocol based two fold serial dilution method
Enterococcus faecalis = experiment: Antibacterial activity against Enterococcus faecalis assessed as inhibition of bacterial growth incubated for 24 hrs by CLSI protocol based two fold serial dilution method
Staphylococcus aureus [2] = experiment: Antibacterial activity against Staphylococcus aureus 25923 assessed as inhibition of bacterial growth incubated for 24 hrs by CLSI protocol based two fold serial dilution method
Klebsiella pneumoniae = experiment: Antibacterial activity against Klebsiella pneumonia assessed as inhibition of bacterial growth incubated for 24 hrs by CLSI protocol based two fold serial dilution method
Pseudomonas aeruginosa [3] = experiment: Antibacterial activity against Pseudomonas aeruginosa ATCC 27853 assessed as inhibition of bacterial growth incubated for 24 hrs by CLSI protocol based two fold serial dilution method
Staphylococcus aureus [4] = experiment: Antibacterial activity against Staphylococcus aureus 29213 assessed as inhibition of bacterial growth incubated for 24 hrs by CLSI protocol based two fold serial dilution method
Escherichia coli [5] = experiment: Antibacterial activity against Escherichia coli assessed as inhibition of bacterial growth incubated for 24 hrs by CLSI protocol based two fold serial dilution method
Staphylococcus aureus [6] = experiment: Antibacterial activity against Staphylococcus aureus assessed as inhibition of bacterial growth incubated for 24 hrs by CLSI protocol based two fold serial dilution method
Pseudomonas aeruginosa [7] = experiment: Antibacterial activity against Pseudomonas aeruginosa assessed as inhibition of bacterial growth incubated for 24 hrs by CLSI protocol based two fold serial dilution method
Escherichia coli [8] = experiment: Antibacterial activity against Escherichia coli 25922 assessed as inhibition of bacterial growth incubated for 24 hrs by CLSI protocol based two fold serial dilution method

Structure (SMILES)	MIC (Acinetobacter baumannii) [µg/mL]	MIC (Staphylococcus aureus [1]) [µg/mL]	MIC (Enterococcus faecalis) [µg/mL]	MIC (Staphylococcus aureus [2]) [µg/mL]	MIC (Klebsiella pneumoniae) [µg/mL]	MIC (Pseudomonas aeruginosa [3]) [µg/mL]	MIC (Staphylococcus aureus [4]) [µg/mL]	MIC (Escherichia coli [5]) [µg/mL]	MIC (Staphylococcus aureus [6]) [µg/mL]	MIC (Pseudomonas aeruginosa [7]) [µg/mL]	MIC (Escherichia coli [8]) [µg/mL]
Sc1nnc(COc2cccc3c2c2ccccc2n3Cc2nnc(S)o2)o1	128 (≈ 311 µM)	32 (≈ 77.8 µM)	32 (≈ 77.8 µM)	64 (≈ 156 µM)	64 (≈ 156 µM)	128 (≈ 311 µM)	64 (≈ 156 µM)	32 (≈ 77.8 µM)	32 (≈ 77.8 µM)	128 (≈ 311 µM)	32 (≈ 77.8 µM)
Fc1ccc(COc2cccc3c2c2ccccc2n3Cc2nnc(S)o2)cc1	4 (≈ 9.87 µM)	1 (≈ 2.47 µM)	2 (≈ 4.93 µM)	2 (≈ 4.93 µM)	4 (≈ 9.87 µM)	8 (≈ 19.7 µM)	8 (≈ 19.7 µM)	0.25 (≈ 0.617 µM)	256 (≈ 631 µM)	256 (≈ 631 µM)	2 (≈ 4.93 µM)
Sc1nnc(COc2cccc3[nH]c4ccccc4c23)o1	64 (≈ 215 µM)	2 (≈ 6.73 µM)	2 (≈ 6.73 µM)	64 (≈ 215 µM)	4 (≈ 13.5 µM)	64 (≈ 215 µM)	128 (≈ 430 µM)	1 (≈ 3.36 µM)	64 (≈ 215 µM)	256 (≈ 861 µM)	4 (≈ 13.5 µM)
Sc1nnc(Cn2c3ccccc3c3c(OCc4ccc(Cl)cc4)cccc32)o1	256 (≈ 607 µM)	256 (≈ 607 µM)	256 (≈ 607 µM)	256 (≈ 607 µM)	256 (≈ 607 µM)	256 (≈ 607 µM)	256 (≈ 607 µM)	256 (≈ 607 µM)	256 (≈ 607 µM)	256 (≈ 607 µM)	4 (≈ 9.48 µM)
CN[C@H](CC(C)C)C(=O)N[C@H]1C(=O)N[C@@H](CC(N)=O)C(=O)N[C@H]2C(=O)N[C@H]3C(=O)N[C@H](C(=O)N[C@H](C(=O)O)c4cc(O)cc(O)c4-c4cc3ccc4O)[C@H](O)c3ccc(c(Cl)c3)Oc3cc2cc(c3O[C@@H]2O[C@H](CO)[C@@H](O)[C@H](O)[C@H]2O[C@H]2C[C@](C)(N)[C@H](O)[C@H](C)O2)Oc2ccc(cc2Cl)[C@H]1O [VANCOMYCIN]			2 (≈ 1.38 µM)								
Clc1cnc(COc2cccc3[nH]c4ccccc4c23)s1	256 (≈ 813 µM)	256 (≈ 813 µM)	256 (≈ 813 µM)	256 (≈ 813 µM)	256 (≈ 813 µM)	256 (≈ 813 µM)	256 (≈ 813 µM)	256 (≈ 813 µM)	256 (≈ 813 µM)	256 (≈ 813 µM)	256 (≈ 813 µM)
CC(C)=CCOc1cccc2c1c1ccccc1n2Cc1nnc(S)o1	8 (≈ 21.9 µM)	1 (≈ 2.74 µM)	4 (≈ 10.9 µM)	4 (≈ 10.9 µM)	4 (≈ 10.9 µM)	2 (≈ 5.47 µM)	4 (≈ 10.9 µM)	8 (≈ 21.9 µM)	256 (≈ 700 µM)	256 (≈ 700 µM)	4 (≈ 10.9 µM)
Fc1ccccc1COc1cccc2c1c1ccccc1n2Cc1nnc(S)o1	64 (≈ 158 µM)	16 (≈ 39.5 µM)	256 (≈ 631 µM)	256 (≈ 631 µM)	32 (≈ 78.9 µM)	0.25 (≈ 0.617 µM)	64 (≈ 158 µM)	128 (≈ 316 µM)	256 (≈ 631 µM)	256 (≈ 631 µM)	16 (≈ 39.5 µM)
CCn1c2ccccc2c2nnc(SCc3nnc(S)o3)nc21	256 (≈ 743 µM)	256 (≈ 743 µM)	256 (≈ 743 µM)	256 (≈ 743 µM)	256 (≈ 743 µM)	256 (≈ 743 µM)	256 (≈ 743 µM)	256 (≈ 743 µM)	256 (≈ 743 µM)	256 (≈ 743 µM)	256 (≈ 743 µM)
CCCCCCOc1cccc2c1c1ccccc1n2Cc1nnc(S)o1	256 (≈ 671 µM)	256 (≈ 671 µM)	256 (≈ 671 µM)	256 (≈ 671 µM)	256 (≈ 671 µM)	256 (≈ 671 µM)	1 (≈ 2.62 µM)	8 (≈ 21 µM)	256 (≈ 671 µM)	256 (≈ 671 µM)	4 (≈ 10.5 µM)
Sc1nnc(Cn2c3ccccc3c3c(OCCN4CCOCC4)cccc32)o1	128 (≈ 312 µM)	128 (≈ 312 µM)	64 (≈ 156 µM)	128 (≈ 312 µM)	64 (≈ 156 µM)	64 (≈ 156 µM)	32 (≈ 78 µM)	64 (≈ 156 µM)	128 (≈ 312 µM)	256 (≈ 624 µM)	128 (≈ 312 µM)
CCCCCCCCCCCCOc1cccc2c1c1ccccc1n2Cc1nnc(S)o1	256 (≈ 550 µM)	256 (≈ 550 µM)	256 (≈ 550 µM)	256 (≈ 550 µM)	256 (≈ 550 µM)	256 (≈ 550 µM)	128 (≈ 275 µM)	256 (≈ 550 µM)	256 (≈ 550 µM)	256 (≈ 550 µM)	256 (≈ 550 µM)
